{
  "source": "patent US20060217351A1",
  "about": "“Method for treating cardiovascular diseases” (priority 2003, published 2006)",
  "key": {"[1]": {"tested_on": "cerebral infarct", "assay": "embolic cerebral infarction model", "format": "in vivo", "conditions": "rats"}, "[2]": {"assay": "storage stability of crystals", "format": "physicochemical", "conditions": "crystal form comparison"}, "[3]": {"tested_on": "thrombus formation", "conditions": "rats, p.o., cited from earlier work; for ED50, prevention of thrombus formation: arteriovenous shunt model"}, "[4]": {"tested_on": "platelet aggregation", "assay": "comparative study of inhibition of platelet aggregation", "format": "in vivo", "conditions": "for inhibition of platelet aggregation: in thirty (30) minutes"}, "[5]": {"tested_on": "platelet aggregation", "assay": "anti-platelet aggregation ability of active metabolite enantiomers", "conditions": "enantiomers of active metabolite II", "description": "The active metabolite is a mixture of four enantiomers each of which has shown dose dependent anti-platelet aggregation ability, and thus useful for the practice of the invention."}},
  "data": [
    {"compound": "COC(=O)[C@H](c1ccccc1Cl)N1CCc2sccc2C1", "note": "[clopidogrel bisulfate]", "values": [
      {"measurement": "effect on total area of cerebral infarct", "setting": "[1]", "value": "similar, yet milder effect on cerebral infarcts"},
      {"measurement": "potency compared to compound of formula I (times less potent)", "setting": "[1]", "value": "about 10 times"}
    ]},
    {"compound": "CC(=O)Oc1cc2c(s1)CCN(C(C(=O)C1CC1)c1ccccc1F)C2.Cl", "note": "(stereo not drawn) [crystal B2, 2-Acetoxy-5-(α-cyclopropylcarbonyl-2-fluorobenzyl)-4,5,6,7-tetrahydrothieno[3,2-c]pyridine hydrochloride (crystal B2)]", "values": [
      {"measurement": "storage stability", "setting": "[2]", "value": "more excellent storage stability than crystal B1"}
    ]},
    {"compound": "CC(=O)Oc1cc2c(s1)CCN(C(C(=O)C1CC1)c1ccccc1F)C2.Cl", "note": "(stereo not drawn) [crystal B1, 2-Acetoxy-5-(α-cyclopropylcarbonyl-2-fluorobenzyl)-4,5,6,7-tetrahydrothieno[3,2-c]pyridine hydrochloride (crystal B1)]", "values": [
      {"measurement": "storage stability", "setting": "[2]", "value": "more excellent storage stability than crystal A"}
    ]},
    {"compound": "CC(=O)Oc1cc2c(s1)CCN(C(C(=O)C1CC1)c1ccccc1F)C2", "note": "(stereo not drawn) [compound of formula I, 2-Acetoxy-5-(α-cyclopropylcarbonyl-2-fluorobenzyl)-4,5,6,7-tetrahydrothieno[3,2-c]pyridine]", "values": [
      {"measurement": "effect on thrombus formation", "setting": "[3]; 0.12-3 mg/kg", "value": "prevented thrombus formation in a dose dependent manner"},
      {"measurement": "ED50, prevention of thrombus formation", "setting": "[3]", "value": 0.65, "unit": "mg/kg"},
      {"measurement": "inhibition of platelet aggregation", "setting": "[4]", "value": "greater than 50%"},
      {"measurement": "potency compared to clopidogrel (times higher)", "setting": "[4]; in vivo, versus clopidogrel", "value": "approximately 10 times"},
      {"measurement": "effect on total area of cerebral infarct", "setting": "[1]", "value": "reduced the total area of cerebral infarct in rats, in a dose related manner"}
    ]},
    {"compound": "COC(=O)[C@H](c1ccccc1Cl)N1CCc2sccc2C1", "note": "[clopidogrel, reference compound]", "values": [
      {"measurement": "ED50, prevention of thrombus formation", "setting": "[3]", "value": 7.0, "unit": "mg/kg"},
      {"measurement": "inhibition of platelet aggregation", "setting": "[4]", "value": "minimal aggregation"}
    ]},
    {"compound": "O=C(O)/C=C1/CN(C(C(=O)C2CC2)c2ccccc2F)CCC1S", "note": "(stereo not drawn) [RS enantiomer]", "values": [
      {"measurement": "anti-platelet aggregation ability", "setting": "[5]", "value": "most potent"}
    ]}
  ]
}
